# Test results: publication PMC8286840, “Identifying SARS-CoV-2 antiviral compounds by screening for small molecule inhibitors of Nsp3 papain-like protease” (Biochemical Journal, 2021)
# Read-outs that look alike come from different tables or passages of the source.
# Tests used:
# [1] = biological target: T1, SARS-CoV-2 PLpro (nsp3 1564–1878) (Severe acute respiratory syndrome coronavirus 2, UniProt P0DTD1); assay: biochemical; parameters: FRET-quenched peptide (Pro3) cleavage by PLpro, 10 min pre-incubation, slope over 20 min, normalised to no-compound control; settings: read-out: % of control remaining
# [2] = biological target: T1, SARS-CoV-2 PLpro (nsp3 1564–1878); assay: biochemical; parameters: FRET-quenched peptide (Pro3) cleavage by PLpro, 10 min pre-incubation, slope over 20 min, normalised to no-compound control; settings: read-out: % of control remaining; remark: listed apart in the source
compound,measurement,setting,value
O=C(Nc1ccccc1)N1CCN(c2nc(-c3ccccc3)ns2)CC1 [JNJ 1661010],remaining activity at 1.25 µM,"[1]; Well no.=5167, low concentration screen",98.1%
same,remaining activity at 3.75 µM,"[2]; Well no.=5167, high concentration screen",104%
Nc1nc(Nc2ccc(S(N)(=O)=O)cc2)nn1C(=O)c1c(F)cccc1F [JNJ-7706621],remaining activity at 1.25 µM,"[1]; Well no.=8260, low concentration screen",91.9%
same,remaining activity at 3.75 µM,"[2]; Well no.=8260, high concentration screen",92%
CN1CCN(C(=O)c2cc3cc(Cl)ccc3[nH]2)CC1 [JNJ-7777120],remaining activity at 1.25 µM,"[1]; Well no.=5217, low concentration screen",101%
same,remaining activity at 1.25 µM,"[1]; Well no.=6949, low concentration screen",103%
same,remaining activity at 3.75 µM,"[2]; Well no.=5217, high concentration screen",104%
same,remaining activity at 3.75 µM,"[2]; Well no.=6949, high concentration screen",96%
Cn1cc(CNCC2CCN(c3ncc(C(=O)NO)cn3)CC2)c2ccccc21 [JNJ-26481585],remaining activity at 1.25 µM,"[1]; Well no.=5224, low concentration screen",98.6%
same,remaining activity at 3.75 µM,"[2]; Well no.=5224, high concentration screen",98.4%
C[C@H](NC(=O)CNC(=O)c1cccc(Cl)c1)c1ccccc1 [JNJ-63533054],remaining activity at 1.25 µM,"[1]; Well no.=8047, low concentration screen",98.3%
same,remaining activity at 3.75 µM,"[2]; Well no.=8047, high concentration screen",102%
N#Cc1c(NC(=O)c2cccc3ccccc23)sc2c1CCCC2 [JNK Inhibitor IX],remaining activity at 1.25 µM,"[1]; Well no.=2518, low concentration screen",99.9%
same,remaining activity at 3.75 µM,"[2]; Well no.=2518, high concentration screen",103%
CCOc1nc(NC(=O)Cc2cc(OC)ccc2OC)cc(N)c1C#N [JNK Inhibitor VIII],remaining activity at 1.25 µM,"[1]; Well no.=2550, low concentration screen",99.5%
same,remaining activity at 3.75 µM,"[2]; Well no.=2550, high concentration screen",100%
"Cn1nc2c3c(cccc31)C(=O)c1ccccc1-2 [JNK Inhibitor, Negative Control]",remaining activity at 1.25 µM,"[1]; Well no.=2514, low concentration screen",91%
same,remaining activity at 3.75 µM,"[2]; Well no.=2514, high concentration screen",92.4%
CCc1ccc(OCc2ccccc2C(=O)Nc2ccc3nc(C)cc(N)c3c2)cc1 [JTC-801],remaining activity at 1.25 µM,"[1]; Well no.=5025, low concentration screen",98.2%
same,remaining activity at 1.25 µM,"[1]; Well no.=7002, low concentration screen",95.7%
same,remaining activity at 3.75 µM,"[2]; Well no.=5025, high concentration screen",98.7%
same,remaining activity at 3.75 µM,"[2]; Well no.=7002, high concentration screen",91.5%
CCCn1c(C)c(C(=O)c2cccc3ccccc23)c2ccccc21 [JWH-015],remaining activity at 1.25 µM,[1],92.6%
same,remaining activity at 3.75 µM,[2],93.1%
CCCC(C)(C)c1ccc2c(c1)OC(C)(C)[C@@H]1CC=C(C)C[C@@H]21 [JWH-133],remaining activity at 1.25 µM,[1],102%
same,remaining activity at 3.75 µM,[2],104%
O=C(Oc1ccc([N+](=O)[O-])cc1)N1CCC(C(O)(c2ccc3c(c2)OCO3)c2ccc3c(c2)OCO3)CC1 [JZL184],remaining activity at 1.25 µM,"[1]; Well no.=8838, low concentration screen",92.7%
same,remaining activity at 3.75 µM,"[2]; Well no.=8838, high concentration screen",91.1%
O=C(Oc1ccc([N+](=O)[O-])cc1)N1CCN(Cc2cccc(Oc3ccccc3)c2)CC1 [JZL195],remaining activity at 1.25 µM,"[1]; Well no.=5512, low concentration screen",107%
same,remaining activity at 3.75 µM,"[2]; Well no.=5512, high concentration screen",108%
CC1=C2C(=O)[C@H]3[C@@H](CC=C4C[C@@H](O)CC[C@@]43C)[C@@H]2CC[C@]12O[C@@H]1C[C@H](C)CN[C@H]1[C@H]2C [Jervine],remaining activity at 1.25 µM,"[1]; Well no.=3367, low concentration screen",92%
same,remaining activity at 3.75 µM,"[2]; Well no.=3367, high concentration screen",96.2%
"COC(=O)[C@]1(O)C[C@@H]2O[C@@]1(C)n1c3ccccc3c3c4c(c5c6ccccc6n2c5c31)C(=O)NC4 [K-252a, Nocardiopsis sp.]",remaining activity at 1.25 µM,"[1]; Well no.=2552, low concentration screen",95.7%
same,remaining activity at 3.75 µM,"[2]; Well no.=2552, high concentration screen",95.2%
C=CC(=O)N1CCN(C(=O)CNc2cc(I)c(Cl)cc2O)CC1 [K-Ras(G12C) inhibitor 12],remaining activity at 1.25 µM,"[1]; Well no.=7951, low concentration screen",99.9%
same,remaining activity at 3.75 µM,"[2]; Well no.=7951, high concentration screen",90.4%
N=C(N)SCCc1ccc(OCc2ccc([N+](=O)[O-])cc2)cc1 [KB-R7943],remaining activity at 1.25 µM,"[1]; Well no.=5823, low concentration screen",105%
same,remaining activity at 3.75 µM,"[2]; Well no.=5823, high concentration screen",106%
O=S(=O)(NCCSSCCNS(=O)(=O)c1cc(Cl)ccc1Cl)c1cc(Cl)ccc1Cl [KC7F2],remaining activity at 1.25 µM,"[1]; Well no.=8580, low concentration screen",107%
same,remaining activity at 3.75 µM,"[2]; Well no.=8580, high concentration screen",102%
NC(=O)c1ccc(-c2cc(-c3ccc([N+](=O)[O-])cc3)nc(-c3ccco3)c2)cc1 [KJ Pyr 9],remaining activity at 1.25 µM,"[1]; Well no.=6346, low concentration screen",99.3%
same,remaining activity at 3.75 µM,"[2]; Well no.=6346, high concentration screen",101%
CN([C@@H](Cc1ccc(OS(=O)(=O)c2cccc3cnccc23)cc1)C(=O)N1CCN(c2ccccc2)CC1)S(=O)(=O)c1cccc2cnccc12 [KN-62],remaining activity at 1.25 µM,"[1]; Well no.=670, low concentration screen",97.4%
same,remaining activity at 1.25 µM,"[1]; Well no.=2308, low concentration screen",99.3%
same,remaining activity at 3.75 µM,"[2]; Well no.=670, high concentration screen",95.8%
same,remaining activity at 3.75 µM,"[2]; Well no.=2308, high concentration screen",99%
COc1ccc(S(=O)(=O)Nc2ccccc2CN(C)C/C=C/c2ccc(Cl)cc2)cc1 [KN-92],remaining activity at 1.25 µM,"[1]; Well no.=2483, low concentration screen",96.3%
same,remaining activity at 3.75 µM,"[2]; Well no.=2483, high concentration screen",94.2%
COc1ccc(S(=O)(=O)N(CCO)c2ccccc2CN(C)C/C=C/c2ccc(Cl)cc2)cc1 [KN-93],remaining activity at 1.25 µM,"[1]; Well no.=2556, low concentration screen",103%
same,remaining activity at 3.75 µM,"[2]; Well no.=2556, high concentration screen",102%
O=CN1CC/C(=C\c2ccc3c(c2)OCO3)C1=O [KNK437],remaining activity at 1.25 µM,"[1]; Well no.=8768, low concentration screen",92.1%
same,remaining activity at 3.75 µM,"[2]; Well no.=8768, high concentration screen",89.6%
O=C(Nc1ccccc1C(=O)Nc1ccc(CCO)cc1)c1ccc([N+](=O)[O-])cc1 [KS-176],remaining activity at 1.25 µM,"[1]; Well no.=5911, low concentration screen",101%
same,remaining activity at 3.75 µM,"[2]; Well no.=5911, high concentration screen",102%
CCCCCCOC(=O)[C@]1(O)C[C@@H]2O[C@@]1(C)n1c3ccccc3c3c4c(c5c6ccccc6n2c5c31)C(=O)NC4 [KT5720],remaining activity at 1.25 µM,"[1]; Well no.=2481, low concentration screen",105%
same,remaining activity at 3.75 µM,"[2]; Well no.=2481, high concentration screen",109%
COc1ccc(-c2ccc3c(N4CCOCC4)nc(N4C[C@@H](C)O[C@@H](C)C4)nc3n2)cc1CO [KU0063794],remaining activity at 1.25 µM,"[1]; Well no.=2899, low concentration screen",105%
same,remaining activity at 3.75 µM,"[2]; Well no.=2899, high concentration screen",103%
O=c1cc(-c2cccc3c2Sc2ccccc2S3)oc(N2CCOCC2)c1 [KU 55933 - 2-(4-Morpholinyl)-6-(1-thianthrenyl)-4H-pyran-4-one],remaining activity at 1.25 µM,"[1]; Well no.=2438, low concentration screen",101%
same,remaining activity at 3.75 µM,"[2]; Well no.=2438, high concentration screen",103%
C[C@@H]1CN(CC(=O)Nc2ccc3c(c2)Cc2cccc(-c4cc(=O)cc(N5CCOCC5)o4)c2S3)C[C@H](C)O1 [KU-60019],remaining activity at 1.25 µM,"[1]; Well no.=5299, low concentration screen",93.8%
same,remaining activity at 3.75 µM,"[2]; Well no.=5299, high concentration screen",85.8%
O=C(c1ccc(/C=C/c2n[nH]c3ccccc23)cc1)N1CCNCC1 [KW 2449],remaining activity at 1.25 µM,"[1]; Well no.=5108, low concentration screen",102%
same,remaining activity at 3.75 µM,"[2]; Well no.=5108, high concentration screen",107%
CCc1c(O)cc(O)c(C(=O)c2ccc(OCCN3CCOCC3)c(OC)c2)c1CC(=O)N(CCOC)CCOC [KW-2478],remaining activity at 1.25 µM,"[1]; Well no.=5342, low concentration screen",93.8%
same,remaining activity at 3.75 µM,"[2]; Well no.=5342, high concentration screen",94.5%
O=C(Cc1ccc(-c2ccc(OCCN3CCOCC3)cc2)cn1)NCc1ccccc1 [KX2-391],remaining activity at 1.25 µM,"[1]; Well no.=5350, low concentration screen",94.7%
same,remaining activity at 3.75 µM,"[2]; Well no.=5350, high concentration screen",94.3%
COc1ccc(CCC(=O)Nc2nc3ccc(Cl)cc3s2)cc1OC [KY02111],remaining activity at 1.25 µM,"[1]; Well no.=4782, low concentration screen",105%
same,remaining activity at 3.75 µM,"[2]; Well no.=4782, high concentration screen",98.2%
C[C@@H]1O[C@@H](O[C@H]2[C@H](Oc3cc(O)c4c(=O)c(O)c(-c5ccc(O)cc5)oc4c3)O[C@H](CO)[C@@H](O)[C@@H]2O)[C@H](O)[C@H](O)[C@H]1O [Kaempferol-7-neohesperidoside],remaining activity at 1.25 µM,"[1]; Well no.=3307, low concentration screen",102%
same,remaining activity at 3.75 µM,"[2]; Well no.=3307, high concentration screen",103%
O=c1c(O)c(-c2ccc(O)cc2)oc2cc(O)cc(O)c12 [Kaempferol],remaining activity at 1.25 µM,"[1]; Well no.=3426, low concentration screen",89.4%
same,remaining activity at 1.25 µM,"[1]; Well no.=6246, low concentration screen",105%
same,remaining activity at 3.75 µM,"[2]; Well no.=3426, high concentration screen",90.3%
same,remaining activity at 3.75 µM,"[2]; Well no.=6246, high concentration screen",109%
